Test results from US10082496B2, “Targeting emopamil binding protein (EBP) with small molecules that induce an abnormal feedback response by lowering endogenous cholesterol biosynthesis” (Board of Regents of the University of Texas System, priority 2014, dated 2018).

Columns and labels:
DLD-1 = assay: In vitro APC inhibition assay (MTT), DLD-1; type: cell-based; settings: Homo sapiens
Description: (§1) The small molecule anti-cancer compounds were evaluated for the ability to inhibit the activity of APC in an in vitro assay.
(§2) Reagents required for the assay are: (3-[4,5-Dimethylthiazol-2-yl]-2,5-diphenyltetrazolium bromide; Thiazolyl blue; RPI corp., cat# M92050); RPMI-1640 or Medium of Choice (i.e. DMEM) without phenol red; 1M Hepes; 100 mM NaPyruvate; 1000× Gentamicin (50 mg/ml); 100× Penicillin/Streptomycin/Fungizone; 1×PBS; Triton X-100; 1N HCl and Isopropanol. To make the MTT solution (10×), MTT powder was dissolved into complete RPMI (or DMEM solution) to a final concentration of 5 mg/mL and was sterilized by filtration with a 0.2 μm filter. The MTT solubilization solution contained 10% Triton X-100, 0.1N and 80% isopropanol. MTT solution was diluted to 1× with complete medium at 12 mL per plate. The culture dishes (96 wells) were removed from the incubator and the media was discarded. […] The cells were removed from the incubator and the MTT solution was discarded.
(§3) Percent inhibition was determined relative to control reactions without inhibitor, and half maximal inhibitory concentration (IC50) values were determined using a standard four parameter fit to the inhibition data.

HCT-116 = assay: In vitro APC inhibition assay (MTT), HCT-116; type: cell-based; settings: Homo sapiens, HCT-116, read-out: IC50 (nM) in HCT-116
Description: as §1
Reagents required for the assay are: (3-[4,5-Dimethylthiazol-2-yl]-2,5-diphenyltetrazolium bromide; Thiazolyl blue; RPI corp., cat# M92050); RPMI-1640 or Medium of Choice (i.e. DMEM) without phenol red; 1M Hepes; 100 mM NaPyruvate; 1000× Gentamicin (50 mg/ml); 100× Penicillin/Streptomycin/Fungizone; 1×PBS; Triton X-100; 1N HCl and Isopropanol. To make the MTT solution (10×), MTT powder was dissolved into complete RPMI (or DMEM solution) to a final concentration of 5 mg/mL and was sterilized by filtration with a 0.2 μm filter. The MTT solubilization solution contained 10% Triton X-100, 0.1N and 80% isopropanol. MTT solution was diluted to 1× with complete medium at 12 mL per plate. The culture dishes (96 wells) were removed from the incubator and the media was discarded. The plates were washed three times with 1×PBS. 100 μl of 1×MTT solution was added to each well and the plates were incubated in a tissue culture incubator for 2-4 hours, depending on the cell line. The cells were removed from the incubator and the MTT solution was discarded. 200 μl of 1×MTT solubilization solution was added to each well using a multi-channel pipetor and the cells were placed on an orbital shaker for 10 minutes. The results were read on a microtiter plate reader (absorbance=570 nm, reference=700 nm) and data was exported.
as §3

HT-29 = assay: In vitro APC inhibition assay (MTT), HT-29; type: cell-based; settings: Homo sapiens
Description: as §1, §2, §3

DLD1 cells = assay: Dose response studies in CRC line DLD1 (truncated APC); type: cell-based, human; settings: varying doses
Description: These 14 compounds then were obtained commercially and their IC50 determined by performing dose response studies with half log dilution series at 12 concentration points in two authentic CRC lines: HCT116 (wt APC) and DLD1 (truncated APC).
DLD-1 cells normally are cultured in 10% serum medium, and they are rapidly shifted to 0.2% serum medium for dose response studies.

S9 half-life = type: in vitro ADME; settings: S9 fraction; read-out: S9 T1/2

IC50 (DLD-1; DLD-1, DLD-1 (truncated APC)) [nM]	IC50 (HCT-116) [nM]	Structure (SMILES)	also measured
41	–	COc1ccc(S(=O)(=O)N2CCC(N3CCC(C)CC3)CC2)c(OC)c1	–
–	> 10000	CC1CCN(C2CCN(S(=O)(=O)c3ccccc3-c3ccc(C(F)(F)F)cc3)CC2)CC1	IC50 (HT-29; HT-29, HT-29 (truncated APC)): 57 nM
–	> 10000	CC1CCN(C2CCN(S(=O)(=O)c3cccnc3)CC2)CC1	IC50 (HT-29; HT-29, HT-29 (truncated APC)): 2200 nM
29	–	CC1CCN(C2CCN(S(=O)(=O)c3ccc(OC(F)(F)F)c(Br)c3)CC2)CC1	–
172	–	Cc1cc(C)c(S(=O)(=O)N2CCC(N3CCCC3)CC2)c(C)c1	–
–	> 10000	COc1ccccc1-c1ccc(S(=O)(=O)N2CCC(N3CCC(C)CC3)CC2)cc1	IC50 (HT-29; HT-29, HT-29 (truncated APC)): 19 nM
–	> 10000	CC1CCN(C2CCN(S(=O)(=O)c3ccc(-c4ccccc4)cc3)CC2)CC1	IC50 (HT-29; HT-29, HT-29 (truncated APC)): 234 nM
2300	–	C[N+]1(C2CCN(S(=O)(=O)c3cccc4ccccc34)CC2)CCCC1	–
–	> 10000	Cc1cc(C)c(S(=O)(=O)N2CCC(N3CCCCC3)CC2)c(C)c1	–
–	> 10000	Cc1nc(Cl)sc1S(=O)(=O)N1CCC(N2CCC(C)CC2)CC1	–
69	–	Cc1cc(C)c(S(=O)(=O)N2CCC([N+]3(C)CCCC3)CC2)c(C)c1	–
> 10000	–	C[C@H]1CC[N@+](C)(C2CCN(S(=O)(=O)c3ccccc3)CC2)CC1	–
–	–	COc1ccc2c(c1)CCC(c1ccccc1)=C2c1ccc(OCCN2CCCC2)cc1 [Nafoxidine]	sensitivity of DLD-1 vs HCT-116 cells to EBP inhibitors (FIG. 10) (DLD1 cells): selectively sensitive
> 10000	–	COc1ccc(S(=O)(=O)N2CCC([N+]3(C)CCCC3)CC2)cc1	–
–	> 10000	C#CCOCCC1CCN(C2CCN(S(=O)(=O)c3ccccc3)CC2)CC1	IC50 (HT-29; HT-29, HT-29 (truncated APC)): 35 nM
29	–	CC1CCCN(C2CCN(S(=O)(=O)c3ccc(C(F)(F)F)cc3)CC2)C1 (stereo not shown)	–
–	> 10000	CC1CCN(C2CCN(S(=O)(=O)c3ccc(Cl)cc3)CC2)CC1	IC50 (HT-29; HT-29, HT-29 (truncated APC)): 5.6 nM
18	> 10000	C#CCC1CCN(C2CCN(S(=O)(=O)c3ccccc3)CC2)CC1	half-life (S9 half-life): 25.2 min; IC50 (HT-29; HT-29, HT-29 (truncated APC)): 4 nM
–	> 10000	CC1CCN(C2CCN(S(=O)(=O)c3ccccc3Br)CC2)CC1	–
15000	> 10000	C#CCOc1ccc(N=[N+]=[N-])cc1S(=O)(=O)N1CCC(N2CCC(C)CC2)CC1	IC50 (HT-29; HT-29, HT-29 (truncated APC)): 4500 nM
–	> 10000	CC1CCN(C2CCN(S(=O)(=O)c3ccc(Br)cc3OC(F)(F)F)CC2)CC1	–
–	> 10000	CC1CCN(C2CCN(S(=O)(=O)c3ccc(Br)cc3)CC2)CC1	IC50 (HT-29; HT-29, HT-29 (truncated APC)): 1.2 nM
19	–	CC1CCN(C2CCN(Cc3ccc(OC(F)(F)F)cc3)CC2)CC1	–

IC50 (DLD-1; DLD-1, DLD-1 (truncated APC)) [nM]	IC50 (HCT-116) [nM]	Structure (SMILES)	also measured
235	–	C#CCC1CCN(C2CCN(S(=O)(=O)c3ccc(N=[N+]=[N-])cc3)CC2)CC1	–
–	> 10000	Cc1cc(C)c(S(=O)(=O)N2CCC(N3CCC(Cc4ccccc4)CC3)CC2)c(C)c1	–
–	–	CC(C(O)c1ccc(O)cc1)N1CCC(Cc2ccccc2)CC1 (stereo not shown) [Ifenprodil]	sensitivity of DLD-1 vs HCT-116 cells to EBP inhibitors (FIG. 10) (DLD1 cells): selectively sensitive
–	> 10000	COc1ccc(-c2ccc(S(=O)(=O)N3CCC(N4CCC(C)CC4)CC3)cc2)cc1	IC50 (HT-29; HT-29, HT-29 (truncated APC)): 288 nM
366	–	CC1CCCN(C2CCN(S(=O)(=O)c3ccc([N+](=O)[O-])cc3)CC2)C1 (stereo not shown)	–
421	–	CC1CCN(C2CCN(S(=O)(=O)c3ccccc3OC(F)(F)F)CC2)CC1	–
374	–	CC(C)c1cc(C(C)C)c(S(=O)(=O)N2CCC(N3CCCC3)CC2)c(C(C)C)c1	–
0.7	–	CC1CCN(C2CCN(S(=O)(=O)c3c(C(C)C)cc(C(C)C)cc3C(C)C)CC2)CC1	half-life (S9 half-life): 59 min
–	> 10000	Cc1cc(C)c(S(=O)(=O)N2CCC(N3CCOCC3)CC2)c(C)c1	–
–	> 10000	CC1CCN(C2CCN(S(=O)(=O)c3cccc(-c4ccccc4)c3)CC2)CC1	–
4.8	> 10000	C#CCC1CCN(C2CCN(S(=O)(=O)c3ccc(C(=O)c4ccccc4)cc3)CC2)CC1	IC50 (HT-29; HT-29, HT-29 (truncated APC)): 5.2 nM
501	–	O=S(=O)(c1ccc(OC(F)(F)F)cc1)N1CCC(N2CCOCC2)CC1	–
–	> 10000	Cc1cc(C)c(S(=O)(=O)N2CCC(N3CCC(C)OC3)CC2)c(C)c1 (stereo not shown)	IC50 (HT-29; HT-29, HT-29 (truncated APC)): 61 nM
–	> 10000	CC1CCN(C2CCN(S(=O)(=O)c3ccc(C#N)cc3)CC2)CC1	–
–	> 10000	CC1CCN(C2CCN(S(=O)(=O)c3ccc(Cl)c(Cl)c3)CC2)CC1	–
3900	–	O=S(=O)(c1cccc2ccccc12)N1CCC(N2CCCC2)CC1	–
504	> 10000	C#CCOc1ccc(C(=O)c2ccccc2)cc1S(=O)(=O)N1CCC(N2CCC(C)CC2)CC1	IC50 (HT-29; HT-29, HT-29 (truncated APC)): 185 nM
463	–	CC1CCN(C2CCN(S(=O)(=O)c3cccc(C(C)(C)C)c3)CC2)CC1	–
–	> 10000	CC1CCN(C2CCN(S(=O)(=O)c3ccc(OC(F)F)cc3)CC2)CC1	–
–	> 10000	Cc1ccc(S(=O)(=O)N2CCC(N3CCC(C)CC3)CC2)cc1	IC50 (HT-29; HT-29, HT-29 (truncated APC)): 14 nM
244	–	CC1CCCN(C2CCN(S(=O)(=O)c3ccc(Oc4ccccc4)cc3)CC2)C1 (stereo not shown)	–
–	> 10000	COc1ccc(Br)cc1S(=O)(=O)N1CCC(N2CCC(C)CC2)CC1	–
10	–	CC1CCN(C2CCN(S(=O)(=O)c3cccc4c3OCCO4)CC2)CC1	half-life (S9 half-life): 22.6 min

IC50 (DLD-1; DLD-1, DLD-1 (truncated APC)) [nM]	IC50 (HCT-116) [nM]	Structure (SMILES)	also measured
921	> 10000	C#CCOc1ccc(CN2CCC(N3CCC(C)CC3)CC2)cc1N=[N+]=[N-]	IC50 (HT-29; HT-29, HT-29 (truncated APC)): 437 nM
–	> 10000	C#CCOCCC1CCCCN1C1CCN(S(=O)(=O)c2ccccc2)CC1 (stereo not shown)	IC50 (HT-29; HT-29, HT-29 (truncated APC)): 2300 nM
–	> 10000	C#CCC1CCN(C2CCN(S(=O)(=O)c3ccc(Br)cc3)CC2)CC1	–
~7960	–	C[C@H]1CC[N@@+](C)(C2CCN(S(=O)(=O)c3ccccc3)CC2)CC1	–
147	–	CCCCC#Cc1cc(S(=O)(=O)N2CCC(N3CCC(C)CC3)CC2)ccc1OC(F)(F)F	–
255	–	CC1CCCN(C2CCN(S(=O)(=O)c3ccc(F)cc3)CC2)C1 (stereo not shown)	–
–	> 10000	CC1CCN(C2CCN(S(=O)(=O)c3cccc(Br)c3)CC2)CC1	–
205	–	CC1CCN(C2CCN(S(=O)(=O)c3ccc(OC(F)(F)F)c(C#CCCCCO)c3)CC2)CC1	–
–	> 10000	CC1CCN(C2CCN(S(=O)(=O)c3ccc(-c4ccccc4F)cc3)CC2)CC1	–
31	–	CC1CCCN(C2CCN(S(=O)(=O)c3ccc(OC(F)(F)F)cc3)CC2)C1 (stereo not shown)	–
–	> 10000	C#CCC1CCCCN1C1CCN(S(=O)(=O)c2ccccc2)CC1 (stereo not shown)	IC50 (HT-29; HT-29, HT-29 (truncated APC)): 1100 nM
38	> 10000	CC1CCN(C2CCN(S(=O)(=O)c3ccc4ncsc4c3)CC2)CC1	IC50 (HT-29; HT-29, HT-29 (truncated APC)): 26 nM
–	> 10000	Cc1cc(C)c(S(=O)(=O)N2CCC(N3CCC(CCC#N)CC3)CC2)c(C)c1	–
–	> 10000	Cc1cc(C)c(S(=O)(=O)N2CCC(N3CCC(c4ccccc4)CC3)CC2)c(C)c1	–
253	–	CC1CCN(C2CCN(S(=O)(=O)c3ccc(Oc4ccccc4)cc3)CC2)CC1	–
56	–	CC1CCN(C2CCN(S(=O)(=O)c3cccc(OC(F)(F)F)c3)CC2)CC1	–
–	> 10000	Cc1cc(C)c(S(=O)(=O)N2CCC(N3CCC(C(C)C)CC3)CC2)c(C)c1	–
–	> 10000	CC1CCN(C2CCN(S(=O)(=O)c3ccc(-c4ccc(Cl)cc4)cc3)CC2)CC1	IC50 (HT-29; HT-29, HT-29 (truncated APC)): 112 nM
5300	–	C#CCC1CCN(C2CCN(S(=O)(=O)c3ccccc3N=[N+]=[N-])CC2)CC1	–
–	> 10000	Cc1cc(C)c(S(=O)(=O)N2CCC(N3CC(C)CC(C)C3)CC2)c(C)c1 (stereo not shown)	IC50 (HT-29; HT-29, HT-29 (truncated APC)): 15 nM
1900	–	C#CCC1CCN(C2CCN(S(=O)(=O)c3cccc(N=[N+]=[N-])c3)CC2)CC1	–

Structure (SMILES)	IC50 (DLD-1; DLD-1, DLD-1 (truncated APC)) [nM]	IC50 (HCT-116) [nM]	also measured
COc1ccc(S(=O)(=O)N2CCC(N3CCC(C)CC3)CC2)cc1 [drawing 83]	–	> 10000	–
C[Si](C)(C)C#CCC1CCN(C2CCN(S(=O)(=O)c3ccc(Br)cc3)CC2)CC1	–	> 10000	IC50 (HT-29; HT-29 (truncated APC)): 1.7 nM; IC50 (DLD-1; DLD-1 (truncated APC)): 2.9 nM
